# Like-named read-outs stand apart in the source and are kept apart here. Where a SMILES comes first, the peptide text is derived from it. [ ]: non-standard residue; d: D form. The star is where a group is joined. Dolaproine = CO[C@@H]([C@@H]1CCCN1)[C@@H](C)C(=O)O; Dil = CC[C@H](C)[C@H](NC)[C@@H](CC(=O)O)OC; X1 = C[C@@H](N*)[C@@H](O)c1ccccc1; NMeV = CN[C@H](C(=O)O)C(C)C
# Assays:
# Karpas299 cells = experiment: In vitro killing of Karpas299 cells (AlamarBlue), single drugs and combinations; format: cell-based, human
# Procedure: (§1) After the sample was added, it was cultured in 5% CO2 at 37° C. for 77±2 hours, stained with AlamarBlue fluorescent dye, cultured for 19±2 hours, and read at 530 nm (excitation)/590 nm (emission). The IC50 value of the semi-inhibitory concentration of each sample was calculated by fitting with the computer's four-parameter equation software.
# (§2) Cell proliferation method was used to investigate the killing effect of drugs on cells.
# [1] = system: Hodgkin lymphoma cells L540; experiment: In vitro killing of L540 cells, single drugs and combinations; format: cell-based
# Procedure: as §1, §2
# [2] = system: Hodgkin lymphoma cells L428; experiment: In vitro killing of L428 cells (AlamarBlue), single drugs, MDR1 inhibitor, combinations
# Procedure: Cell proliferation method was used to investigate the killing effect of drugs on cells. L428 cells were inoculated in 96-well cell culture plates at 5×10^4 cell/mL, i.e., 5000 cells per well. Doxorubicin was diluted to 259.5 ng/mL, 129.8 ng/mL, 64.88 ng/mL, 32.44 ng/mL, 21.63 ng/mL, 14.42 ng/mL, 9.611 ng/mL, 3.844 ng/mL, 1.538 ng/mL using cell culture medium, for a total of 9 concentrations. Serial dilutions of Doxorubicin were added to the culture plates of the seeded plates and incubated for 77±2 hours at 37° C. in a 5% CO2 incubator. The samples were stained with AlamarBlue fluorescent dye and incubated at 37° C. in a 5% CO2 incubator for 19±2 hours. Readings were performed at wavelength of 50 nm (excitation)/590 nm (emission). The IC50 value of Doxorubicin was calculated by fitting it with four-parameter equation.
# Calcusyn, the software for calculating the combination index, was chosen to calculate the CI of the combination index at different killing levels,
# [3] = system: Hodgkin lymphoma cells L428; settings: known in the art; cited from earlier work
# [4] = biological target: MDR1 (multidrug resistance gene 1 product, CD243, ABC B1) on the cell surface (UniProt P08183); experiment: flow cytometry, PE-labelled UIC2 on HH cells (cells other than L428 did not express MDR1); PBS as negative control
# [5] = biological target: MDR1 (multidrug resistance gene 1 product, CD243, ABC B1) on the cell surface (UniProt P08183); experiment: flow cytometry, PE-labelled UIC2 on L540 cells (cells other than L428 did not express MDR1); PBS as negative control
# [6] = biological target: MDR1 (multidrug resistance gene 1 product, CD243, ABC B1) on the cell surface (UniProt P08183); experiment: flow cytometry, PE-labelled UIC2 on L428 cells (text: L428 specifically expressed MDR1 on the surface); PBS as negative control
# [7] = biological target: MDR1 (multidrug resistance gene 1 product, CD243, ABC B1) on the cell surface (UniProt P08183); experiment: flow cytometry, PE-labelled UIC2 on Karpas 299 cells (cells other than L428 did not express MDR1); PBS as negative control
# [8] = Homo sapiens, L-428, read-out: IC50 of single drug
# [9] = Homo sapiens, L-540, L540, Tables 8 and 13, read-out: IC50 of single drug
# [10] = Homo sapiens, KARPAS-299, Karpas299 cells, Table 13, read-out: IC50 of single drug
Molecule,"IC50 [2, 8]","IC50 [1, 9]",IC50 (Karpas299 cells; [10]),further results
O=P1(N(CCCl)CCCl)NCCCO1 (stereo not shown) [Cyclophosphamide],590 µM,–,–,"IC50 (Karpas299 cells; Homo sapiens, KARPAS-299, read-out: IC50 of single drug): 385 µM; IC50 ([1]; Homo sapiens, L-540, read-out: IC50 of single drug): 121 µM"
CN(C)/N=N/c1[nH]cnc1C(N)=O [Dacarbazine],178 µM,31.3 µM,–,–
COc1cccc2c1C(=O)c1c(O)c3c(c(O)c1C2=O)C[C@@](O)(C(=O)CO)C[C@@H]3O[C@H]1C[C@H](N)[C@H](O)[C@H](C)O1 [Doxorubicin],0.0278 µM,0.0585 µM,0.0405 µM,–
COc1cc([C@@H]2c3cc4c(cc3[C@@H](O[C@@H]3O[C@@H]5CO[C@@H](C)O[C@H]5[C@H](O)[C@H]3O)[C@H]3COC(=O)[C@H]23)OCO4)cc(OC)c1O [Etoposide],54.2 µM,30.1 µM,64.1 µM,–
CC[C@H](C)[C@@H]([C@@H](CC(=O)N1CCC[C@H]1[C@H](OC)[C@@H](C)C(=O)N[C@H](C)[C@@H](O)c1ccccc1)OC)N(C)C(=O)[C@@H](NC(=O)[C@@H](NC)C(C)C)C(C)C [MMAE] (H-[NMeV]V[Dil][Dolaproine]-X1),–,–,–,Sensitivity of L428 to the small molecule (in words) [3]: sensitive
C[C@]12C=CC(=O)C=C1CC[C@@H]1[C@@H]2C(=O)C[C@@]2(C)[C@H]1CC[C@]2(O)C(=O)CO [Prednisone],113 µM,98.5 µM,187 µM,–
CNNCc1ccc(C(=O)NC(C)C)cc1 [Procarbazine],500 µM,24.7 µM,26.9 µM,–
CC[C@]1(O)C[C@H]2CN(CCc3c([nH]c4ccccc34)[C@@](C(=O)OC)(c3cc4c(cc3OC)N(C=O)[C@H]3[C@@](O)(C(=O)OC)[C@H](OC(C)=O)[C@]5(CC)C=CCN6CC[C@]43[C@@H]65)C2)C1 [Vincristine],0.0281 µM,0.000772 µM,0.0185 µM,–
Bleomycin,–,–,–,IC50 (Karpas299 cells; read-out: IC50 of single drug): 1.68 µM; IC50 ([1]; read-out: IC50 of single drug): 3.2 µM; IC50 ([2]; read-out: IC50 of single drug): 2.04 µM
"CD243 (ABC B1) monoclonal antibody (UIC 2), PE (ThermoFisher)",–,–,–,MDR1 binding ratio [4]: 2.6; MDR1 binding ratio [5]: 1.2; MDR1 binding ratio [6]: 16.1; MDR1 binding ratio [7]: 1.2

# Reference: patent publication US20220226334A1, “ANTIBODY CONJUGATE AND APPLICATION OF PHARMACEUTICAL COMPOSITION THEREOF” (SHANGHAI FUDAN-ZHANGJIANG BIO-PHARMACEUTICAL CO., LTD., priority 2019, published 2022)
